# Measurements: PMC11671526, “β-caryophyllene sensitizes hepatocellular carcinoma cells to chemotherapeutics and inhibits cell malignancy through targeting MAPK signaling pathway” (Frontiers in Pharmacology, 2024)
# Tested on: HepG2 cells
# Assay: RNA-seq transcriptome analysis of differentially expressed genes
# Type: cell-based, human
# Conditions: BCP vs control HepG2
# Procedure: The quality and concentration of RNA were examined by MOPS RNA electrophoresis and Eppendorf BioSpectrometer. The transcriptome analysis was performed by BGI-Wuhan China. The RNA-seq dataset of this study is accessible in the Gene Expression Omnibus (GEO) with an access number of GSE276099. The sequence library for each sample was prepared using the BGISEQ-500 platform with a 50-bp single-end (SE50) format. […]2.2.1) was used to align the clean reads to the reference genome and alignment of the clean reads to the reference genes was carried out using Bowtie2 (v2.4.5) ([Langmead and Salzberg, 2012]; [Kim et al., 2015]). Gene expression levels were calculated by RSEM (v1.3.1) ([Li and Dewey, 2011]). Analysis of differential gene expression was performed using edgeR in the Bioconductor software package ([Robinson et al., 2010]). Using a standard protocol, the RNA samples were also examined by reverse transcription and quantitative polymerase chain reaction (RT-qPCR). In brief, for reverse transcription, total RNA (1 μg) and gDNA wiper Mix were incubated at 42°C for 2 min. The samples were immediately incubated with a master mix containing 10 pmol/μL of poly (dT) primers at 37°C for 15 min and 85°C for 5 s. To detect the expression of specific genes by qPCR analysis, gene-specific primers (shown in Supplementary Table S1) were mixed with the ChamQ Universal SYBER qPCR Master Mix and the reaction was conducted using the Roche Lightcycler 480. The GAPDH value was used to normalize the results of each gene. The RNA-seq data of BCP-treated HepG2 cells were screened for DEGs. Gene symbols were turned into Enterz ID using the org.Hs.eg.db Bio-conductor R package. The cluster profiler (v4.6.2) package was used to perform the Kyoto Encyclopedia of Genes and Genomes (KEGG) and Gene Ontology (GO) enrichment analyses ([Wu et al., 2021]). Following the Transcript per million (TPM) data of the dataset, the line chart, and heatmap were plotted using ggplot2 and pheatmap R packages, respectively.
smiles,measurement,setting,value
"C=C1CC/C=C(\C)CC[C@@H]2[C@@H]1CC2(C)C [BCP, β-caryophyllene]",logFC LIPH,"gene LIPH, RNA-seq",-0.6901
same,change LIPH,"gene LIPH, DEG direction",Down
same,logFC LOC107984590,"gene LOC107984590, RNA-seq",-1.673
same,change LOC107984590,"gene LOC107984590, DEG direction",Down
same,logFC LRRK1,"gene LRRK1, RNA-seq",-0.9626
same,change LRRK1,"gene LRRK1, DEG direction",Down
same,logFC LYSMD4,"gene LYSMD4, RNA-seq",-0.6364
same,change LYSMD4,"gene LYSMD4, DEG direction",Down
same,logFC MAB21L4,"gene MAB21L4, RNA-seq",0.9293
same,change MAB21L4,"gene MAB21L4, DEG direction",Up
same,logFC MAFA,"gene MAFA, RNA-seq",-0.8959
same,change MAFA,"gene MAFA, DEG direction",Down
same,logFC MAGEB17,"gene MAGEB17, RNA-seq",-2.787
same,change MAGEB17,"gene MAGEB17, DEG direction",Down
same,logFC MALL,"gene MALL, RNA-seq",-0.8293
same,change MALL,"gene MALL, DEG direction",Down
same,logFC MAMDC2,"gene MAMDC2, RNA-seq",1.292
same,change MAMDC2,"gene MAMDC2, DEG direction",Up
same,logFC MAP1A,"gene MAP1A, RNA-seq",-1.186
same,change MAP1A,"gene MAP1A, DEG direction",Down
same,logFC MAP7,"gene MAP7, RNA-seq",0.7065
same,change MAP7,"gene MAP7, DEG direction",Up
same,logFC MEF2B,"gene MEF2B, RNA-seq",-1.481
same,change MEF2B,"gene MEF2B, DEG direction",Down
same,logFC METTL7A,"gene METTL7A, RNA-seq",-1.025
same,change METTL7A,"gene METTL7A, DEG direction",Down
same,logFC MFSD12,"gene MFSD12, RNA-seq",0.7075
same,change MFSD12,"gene MFSD12, DEG direction",Up
same,logFC MMP17,"gene MMP17, RNA-seq",0.8815
same,change MMP17,"gene MMP17, DEG direction",Up
same,logFC MMP24,"gene MMP24, RNA-seq",1.043
same,change MMP24,"gene MMP24, DEG direction",Up
same,logFC MNX1,"gene MNX1, RNA-seq",-0.6432
same,change MNX1,"gene MNX1, DEG direction",Down
same,logFC MRPS6,"gene MRPS6, RNA-seq",-0.923
same,change MRPS6,"gene MRPS6, DEG direction",Down
same,logFC MTUS2,"gene MTUS2, RNA-seq",-1.542
same,change MTUS2,"gene MTUS2, DEG direction",Down
same,logFC MXD4,"gene MXD4, RNA-seq",-0.5803
same,change MXD4,"gene MXD4, DEG direction",Down
same,logFC MYEOV,"gene MYEOV, RNA-seq",-0.7568
same,change MYEOV,"gene MYEOV, DEG direction",Down
same,logFC MYH15,"gene MYH15, RNA-seq",-1.78
same,change MYH15,"gene MYH15, DEG direction",Down
same,logFC MYLK3,"gene MYLK3, RNA-seq",0.5851
same,change MYLK3,"gene MYLK3, DEG direction",Up
same,logFC MYT1L,"gene MYT1L, RNA-seq",0.8858
same,change MYT1L,"gene MYT1L, DEG direction",Up
same,logFC MYZAP,"gene MYZAP, RNA-seq",-1.044
same,change MYZAP,"gene MYZAP, DEG direction",Down
same,logFC NDC80,"gene NDC80, RNA-seq",0.6133
same,change NDC80,"gene NDC80, DEG direction",Up
same,logFC NES,"gene NES, RNA-seq",-0.6748
same,change NES,"gene NES, DEG direction",Down
same,logFC NEXN,"gene NEXN, RNA-seq",0.7024
same,change NEXN,"gene NEXN, DEG direction",Up
same,logFC NKD1,"gene NKD1, RNA-seq",1.009
same,change NKD1,"gene NKD1, DEG direction",Up
same,logFC NKD2,"gene NKD2, RNA-seq",0.8671
same,change NKD2,"gene NKD2, DEG direction",Up
same,logFC NOG,"gene NOG, RNA-seq",-0.6516
same,change NOG,"gene NOG, DEG direction",Down
same,logFC NOXO1,"gene NOXO1, RNA-seq",-0.746
same,change NOXO1,"gene NOXO1, DEG direction",Down
same,logFC NPIPB8,"gene NPIPB8, RNA-seq",-2.227
same,change NPIPB8,"gene NPIPB8, DEG direction",Down
same,logFC NR4A1,"gene NR4A1, RNA-seq",0.6275
same,change NR4A1,"gene NR4A1, DEG direction",Up
same,logFC NR4A3,"gene NR4A3, RNA-seq",0.9047
same,change NR4A3,"gene NR4A3, DEG direction",Up
same,logFC OASL,"gene OASL, RNA-seq",-1.216
same,change OASL,"gene OASL, DEG direction",Down
same,logFC P4HA3,"gene P4HA3, RNA-seq",1.2167
same,change P4HA3,"gene P4HA3, DEG direction",Up
same,logFC PAK6,"gene PAK6, RNA-seq",-1.538
same,change PAK6,"gene PAK6, DEG direction",Down
same,logFC PALM3,"gene PALM3, RNA-seq",-0.7485
same,change PALM3,"gene PALM3, DEG direction",Down
same,logFC PAPPA,"gene PAPPA, RNA-seq",0.997
same,change PAPPA,"gene PAPPA, DEG direction",Up
same,logFC PAQR5,"gene PAQR5, RNA-seq",-0.667
same,change PAQR5,"gene PAQR5, DEG direction",Down
same,logFC PCSK1,"gene PCSK1, RNA-seq",0.7709
same,change PCSK1,"gene PCSK1, DEG direction",Up
same,logFC PDE7B,"gene PDE7B, RNA-seq",0.7688
same,change PDE7B,"gene PDE7B, DEG direction",Up
same,logFC PDK1,"gene PDK1, RNA-seq",0.6017
same,change PDK1,"gene PDK1, DEG direction",Up
same,logFC PDK4,"gene PDK4, RNA-seq",1.109
same,change PDK4,"gene PDK4, DEG direction",Up
same,logFC PI3,"gene PI3, RNA-seq",-1.544
same,change PI3,"gene PI3, DEG direction",Down
same,logFC PLD1,"gene PLD1, RNA-seq",0.6612
same,change PLD1,"gene PLD1, DEG direction",Up
same,logFC PLEKHG1,"gene PLEKHG1, RNA-seq",0.983
same,change PLEKHG1,"gene PLEKHG1, DEG direction",Up
same,logFC PNPLA6,"gene PNPLA6, RNA-seq",-0.6244
same,change PNPLA6,"gene PNPLA6, DEG direction",Down
same,logFC PPP1R15A,"gene PPP1R15A, RNA-seq",0.636
same,change PPP1R15A,"gene PPP1R15A, DEG direction",Up
same,logFC PRICKLE2,"gene PRICKLE2, RNA-seq",-2.048
same,change PRICKLE2,"gene PRICKLE2, DEG direction",Down
same,logFC PRKCZ,"gene PRKCZ, RNA-seq",0.789
same,change PRKCZ,"gene PRKCZ, DEG direction",Up
same,logFC PRRG4,"gene PRRG4, RNA-seq",-0.7407
same,change PRRG4,"gene PRRG4, DEG direction",Down
same,logFC PSD4,"gene PSD4, RNA-seq",-0.8285
same,change PSD4,"gene PSD4, DEG direction",Down
same,logFC PTGS1,"gene PTGS1, RNA-seq",-1.083
same,change PTGS1,"gene PTGS1, DEG direction",Down
same,logFC PXDN,"gene PXDN, RNA-seq",0.6603
same,change PXDN,"gene PXDN, DEG direction",Up
same,logFC RAB17,"gene RAB17, RNA-seq",-1.103
same,change RAB17,"gene RAB17, DEG direction",Down
same,logFC RAB43,"gene RAB43, RNA-seq",-0.73
same,change RAB43,"gene RAB43, DEG direction",Down
same,logFC RAPGEF3,"gene RAPGEF3, RNA-seq",-0.8733
